The term log D denotes the decadic logarithm of the distribution of all forms, ionised or not, between an organic phase and buffer at a given pH. The low end stands for lower lipophilicity, the high end for higher lipophilicity. What is called IC50 is the concentration at which inhibition is half-maximal.

The source of these data is PMC7910394, “Design of PSMA ligands with modifications at the inhibitor part: an approach to reduce the salivary gland uptake of radiolabeled PSMA inhibitors?” (EJNMMI Radiopharmacy and Chemistry, 2021).

One data set relates to LNCaP cells. Put plainly: Internalization study of 177Lu-labeled ligands in LNCaP cells, normalized to ([125I]I-BA)KuE. It is filed as cell-based, human. The note with it: 37 °C; for internalization (in words): time points 0.5 h, 2 h and 4 h; for %Internalization compared to the reference: 1.0 nM 177Lu-compound, normalized to ([125I]I-BA)KuE. On the procedure:
(§1) PSMA-positive LNCaP cells (300265; Cell Lines Service, Eppelheim, Germany) were cultivated in Dulbecco’s modified Eagle medium/Nutrition Mixture F-12 with GlutaMAX (1/1, DMEM-F12, Thermo Fisher Scientific, Darmstadt, Germany) supplemented with 10% fetal bovine serum (Merck KGaA, Darmstadt, Germany) and kept at 37 °C in a humidified 5% CO2 atmosphere. One day (24 ± 2 h) prior to all in vitro experiments, the cultivated LNCaP cells were harvested using a mixture of trypsin/ethylenediamine-tetraacetic acid (0.05%/0.02%) in PBS (Thermo Fisher Scientific, Darmstadt, Germany) and centrifuged at 1300 rpm (ca. 190×g) for 3 min at room temperature (Heraeus Megafuge 16, Thermo Fisher Scientific, Darmstadt, Germany). After centrifugation, the supernatant was disposed and the cell pellet was resuspended in culture medium. Cells were counted with a Neubauer hemocytometer (Paul Marienfeld GmbH & Co. KG, Lauda-Königshofen, Germany) and seeded in 24-well plates.
(§2) Detailed information on affinity and internalization experiments is provided in the supporting information. […] IC50 values of (^natI-BA)KuE were determined on the same day for monitoring assay performance and to identify abnormal deviations in uptake and/or affinity. […] Data were corrected for non-specific binding and normalized to the specific internalization observed for the radioiodinated reference compound (n = 3).
The culture medium was removed and the cells were washed with 500 µL of DMEM-F12 containing 5% BSA. Afterwards, 200 µL of DMEM-F12 (5% BSA) were added to each well and left to equilibrate at 37 °C for 15 min. 25 µL of DMEM-F12 (5% BSA) were added to each well, followed by the addition of 25 µL of the respective ^177Lu-labeled ligand (10.0 nM in DMEM-F12 (5% BSA)). For blocking PSMA-specific binding and uptake, 25 µL of 2-(phosphonomethyl)pentane-1,5-dioic acid (2-PMPA) (100 µM in DMEM (5% BSA)) instead of DMEM-F12 (5% BSA) were added prior to radiotracer addition. […] Each experiment (control and blockade) was performed in triplicate. […] Incubation was terminated by placing the plate on ice (4 °C, 1 min) and removal of the incubation medium. The cells were washed with 250 µL of ice-cold PBS and the wash medium was combined with the respective supernatant. This fraction represents the amount of free radioligand. 250 µL of ice-cold 2-PMPA (10 µM in PBS) were added and the cells were incubated for 10 min at 4 °C. Afterwards, the cells were rinsed again with 250 µL of ice-cold PBS and the wash medium was combined with the respective supernatant. This fraction represents the amount of cell surface-bound ligand. In the last step, the cells were lysed by addition of 250 µL of 1 M aqueous NaOH. After 20 min, the lysate of each well was transferred to the respective vial as well as 250 µL of 1 M NaOH used for rinsing the well. This fraction represents the amount of internalized radioligand. Quantification of the amount of free, cell surface-bound and internalized activity was performed in a γ-counter.

Data set [1] concerns LNCaP tumor xenograft-bearing CB17-SCID mice. It is filed as in vivo, mouse. Particulars: 24 h p.i. On the procedure:
All animal experiments were conducted in accordance with general animal welfare regulations in Germany (German animal protection act, as amended on 18.05.2018, Art. 141 G v. 29.3.2017 I 626, approval no. 55.2–1-54-2532-71-13) and the institutional guidelines for the care and use of animals. To establish tumor xenografts, LNCaP cells (approx. 10^7 cells) were suspended in 200 μL of a 1/1 mixture (v/v) of DMEM F-12 and Matrigel (BD Biosciences, Heidelberg, Germany) and inoculated subcutaneously onto the right shoulder of 6–8 weeks old CB17-SCID mice (Charles River Laboratories, Sulzfeld, Germany). Mice were used for experiments when tumor size reached 5–10 mm in diameter (3–6 weeks after inoculation).
Approximately 2–10 MBq (0.20 nmol) of the ^177Lu-labeled PSMA inhibitors were injected into the tail vein of LNCaP tumor xenograft-bearing male CB17-SCID mice (n = 3 to 5). They were sacrificed by CO2 asphyxiation and cervical dislocation either 1 h or 24 h post injection (p.i.) (n = 3 for [^177Lu]Lu-5, -6 & -7 (proinhibitor compounds I-III), n = 4 for [^177Lu]Lu-10 (alkyne), n = 5 for [^177Lu]Lu-3 (carbamate I) and n = 5 for [^177Lu]Lu-11 (tetrazole)). Selected organs were removed, weighed and organ activities measured in a γ-counter.
Approximately 2 - 10 MBq (0.20 nmol) of the ^177Lu-labeled PSMA inhibitors were injected into the tail vein of LNCaP tumor xenograft-bearing male CB17-SCID mice (n = 3 to 5). They were sacrificed by CO2 asphyxiation and cervical dislocation either 1 h or 24 h post injection (p.i.) (n = 3 for [^177Lu]Lu-5, -6 & -7 (proinhibitor compounds I-III), n = 4 for [^177Lu]Lu-10 (alkyne) and n = 5 for [^177Lu]Lu-3 (carbamate I) and n = 5 for [^177Lu]Lu-11 (tetrazole)). Selected organs were removed, weighed and organ activities measured in a γ-counter.

Data set [2] in a line: Lipophilicity (log D), shake-flask method. It is filed as physicochemical. The note with it: n-octanol/PBS pH 7.4, 177Lu-labeled compound, n = 6. On the procedure:
The log D values were determined, using the shake-flask method as previously described (Wurzer et al. [2020]). The radiolabeled tracer (0.5–1 MBq, 20 μL) was dissolved in 1 mL of a 1/1 mixture (v/v) of PBS (pH 7.4) and n-octanol in a reaction vial (n = 6). After vigorous mixing of the suspension for 3 min at r.t., the vial was centrifuged at 9000 rpm (ca. 7700×g) for 5 min at room temperature (Heraeus Biofuge 15, Thermo Fisher Scientific, Darmstadt, Germany) and 150 μL aliquots of both layers were measured in a ɣ-counter.

The target in another data set is T1, PSMA (Homo sapiens, UniProt Q04609).
T1 construct: host or cells: LNCaP human prostate cancer cells
T1 sequence (Q04609 whole entry): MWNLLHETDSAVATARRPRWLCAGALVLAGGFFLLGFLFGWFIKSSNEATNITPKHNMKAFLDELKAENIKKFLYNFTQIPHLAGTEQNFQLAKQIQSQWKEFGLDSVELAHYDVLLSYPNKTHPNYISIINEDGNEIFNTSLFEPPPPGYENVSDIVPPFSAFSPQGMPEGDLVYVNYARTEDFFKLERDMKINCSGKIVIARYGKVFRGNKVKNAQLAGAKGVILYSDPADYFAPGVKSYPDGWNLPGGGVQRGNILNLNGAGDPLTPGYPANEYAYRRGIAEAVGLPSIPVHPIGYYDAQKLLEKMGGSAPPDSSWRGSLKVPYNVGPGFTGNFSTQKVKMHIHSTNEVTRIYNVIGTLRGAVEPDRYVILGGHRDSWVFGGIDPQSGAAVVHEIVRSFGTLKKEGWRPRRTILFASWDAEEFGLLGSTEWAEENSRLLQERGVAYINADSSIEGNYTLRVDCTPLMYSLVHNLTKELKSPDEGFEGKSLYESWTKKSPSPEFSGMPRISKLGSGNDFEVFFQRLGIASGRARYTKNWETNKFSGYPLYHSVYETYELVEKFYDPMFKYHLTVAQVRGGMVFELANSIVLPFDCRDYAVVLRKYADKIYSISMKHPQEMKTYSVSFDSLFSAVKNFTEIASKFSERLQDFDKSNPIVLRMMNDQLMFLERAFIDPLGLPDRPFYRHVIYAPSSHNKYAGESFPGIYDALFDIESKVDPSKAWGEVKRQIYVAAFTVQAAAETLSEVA
The experiment in a line: Competitive binding assay (IC50) on LNCaP cells with ([125I]I-BA)KuE as radioligand. Particulars: ([125I]I-BA)KuE 0.2 nM, HBSS (1% BSA), 4 °C, 1 h. How it is done:
as §1, §2
The culture medium was removed and the cells were washed with 500 µL of Hank’s balanced salt solution (HBSS) (Merck KGaA, Darmstadt, Germany), containing 1% bovine serum albumin (BSA) (Merck KGaA, Darmstadt, Germany). Afterwards, 200 µL of HBSS (1% BSA) were added to each well and equilibrated on ice (4 °C) for 15 min. […] Experiments were carried out in triplicates for each concentration. The final concentrations of unlabeled ligand ranged from 10^-11 - 10^-5 M and the final radioligand concentration was 0.2 nM in all binding assays. The cells were incubated for one hour at 4 °C. Incubation was terminated by removal of the incubation medium. The cells were washed with 250 µL of HBSS (1% BSA) and the wash medium was combined with the respective supernatant. This fraction represents the amount of free radioligand. The cells were lysed by addition of 250 µL of 1 M aqueous NaOH. The lysate of each well was transferred to the respective vial as well as 250 µL of 1 M NaOH used for rinsing the well. Quantification of the amount of free and bound activity was performed in a γ-counter. The corresponding IC50 values were calculated using the GraphPad PRISM7 software.

For data set [3] the following is noted: in vivo; cited from earlier work.

Turning to `CSCC[C@H](NC(=O)CC[C@H](NC(=O)N[C@@H](CCC(=O)N[C@H](CCCNC(=O)CCC(=O)NCCCC[C@@H](NC(=O)[C@@H](CNC(=O)c1ccc([Si](F)(C(C)(C)C)C(C)(C)C)cc1)NC(=O)CN1CCN(CC(=O)[O-])CCN(CC(=O)[O-])CCN(CC(=O)[O-])CC1)C(=O)O)C(=O)O)C(=O)O)C(=O)O)C(=O)O.[Lu+3]` [^natLu/[^177Lu]Lu-5], in the data set on LNCaP cells (1 h), the “internalization (in words)” value is given as “no internalization could be detected” and the “%Internalization compared to the reference” value (shortened to “%Internalization”) is recorded as 0.00 ± 0.00%. Also, the “%Internalization” value in the data set with LNCaP cells (0.5 h) was 0.00 ± 0.00%. Moreover, the “%Internalization” value in the data set with LNCaP cells (2 h) amounted to 0.17 ± 0.32%. The “%Internalization” value with LNCaP cells (4 h) was determined as 0.01 ± 0.05%. In data set [1], the “Biodistribution Heart” value was found to be 0.01 ± 0.00 % ID/g, the “Biodistribution Intestine” value is recorded as 0.55 ± 0.04 % ID/g, the “Biodistribution Kidneys” value was determined as 0.48 ± 0.02 % ID/g and the “Biodistribution Liver” value turned out to be 0.05 ± 0.00 % ID/g. In addition, in data set [1], the “Biodistribution Lung” value came to 0.33 ± 0.30 % ID/g, the “Biodistribution Pancreas” value worked out at 0.01 ± 0.00 % ID/g, the “Biodistribution Parotid gland” value is recorded as 0.02 ± 0.00 % ID/g and the “Biodistribution Spleen” value amounted to 0.05 ± 0.01 % ID/g. In data set [1], the “Biodistribution Stomach” value was 0.14 ± 0.07 % ID/g, the “Biodistribution Submandibular gland” value turned out to be 0.02 ± 0.01 % ID/g and the “Biodistribution Tumor” value came out at 0.09 ± 0.02 % ID/g. The “log D” value in data set [2] is listed as −2.89 ± 0.18. In addition, on PSMA, the IC50 was 26 ± 16 µM.
`CCCCCCC(NC(=O)C(CCC(=O)O)NC(=O)NC(CCC(=O)NC(CCCNC(=O)CCC(=O)NCCCCC(NC(=O)C(CNC(=O)c1ccc([Si](F)(C(C)(C)C)C(C)(C)C)cc1)NC(=O)CN1CCN(CC(=O)[O-])CCN(CC(=O)[O-])CCN(CC(=O)[O-])CC1)C(=O)O)C(=O)O)C(=O)O)C(=O)O.[Lu+3]` (centres unmarked) [^natLu/[^177Lu]Lu-7]: in the data set with LNCaP cells (1 h), the “internalization (in words)” value is recorded as “no internalization could be detected” and the “%Internalization” value was 0.5 h: 0.00 ± 0.00 1 h: 0.00 ± 0.00 2 h: 0.00 ± 0.00 4 h: 0.00 ± 0.00%. In addition, the “%Internalization” value with LNCaP cells (0.5 h) is given as 0.5 h: 0.00 ± 0.00 1 h: 0.00 ± 0.00 2 h: 0.00 ± 0.00 4 h: 0.00 ± 0.00%. The “%Internalization” value with LNCaP cells (2 h) is on record as 0.5 h: 0.00 ± 0.00 1 h: 0.00 ± 0.00 2 h: 0.00 ± 0.00 4 h: 0.00 ± 0.00%. Further, the “%Internalization” value with LNCaP cells (4 h) was 0.5 h: 0.00 ± 0.00 1 h: 0.00 ± 0.00 2 h: 0.00 ± 0.00 4 h: 0.00 ± 0.00%. For the same compound, in data set [1], the “Biodistribution Adrenals” value is on record as 0.03 ± 0.01 % ID/g, the “Biodistribution Blood” value is 0.01 ± 0.00 % ID/g, the “Biodistribution Bone” value turned out to be 0.04 ± 0.01 % ID/g and the “Biodistribution Heart” value came to 0.03 ± 0.01 % ID/g. Also, in data set [1], the “Biodistribution Intestine” value turned out to be 0.10 ± 0.05 % ID/g, the “Biodistribution Kidneys” value was found to be 2.04 ± 0.75 % ID/g, the “Biodistribution Liver” value is 0.17 ± 0.05 % ID/g and the “Biodistribution Lung” value was determined as 0.04 ± 0.01 % ID/g. In addition, in data set [1], the “Biodistribution Muscle” value is reported as 0.01 ± 0.00 % ID/g, the “Biodistribution Pancreas” value was found to be 0.02 ± 0.00 % ID/g, the “Biodistribution Parotid gland” value stood at 0.06 ± 0.01 % ID/g and the “Biodistribution Spleen” value is 0.08 ± 0.02 % ID/g. In addition, in data set [1], the “Biodistribution Stomach” value was found to be 0.04 ± 0.01 % ID/g, the “Biodistribution Submandibular gland” value came out at 0.05 ± 0.02 % ID/g and the “Biodistribution Tumor” value was 0.14 ± 0.05 % ID/g. Moreover, the “log D” value in data set [2] is recorded as −2.37 ± 0.22. At PSMA, the IC50 came out at 6.3 ± 3.6 µM.
For the compound botulinum toxin, the “decrease of the SUVmean in the right parotid gland compared to the left (control)” value in data set [3] is listed as “up to 64%”.
